Test results from article PMC6478789, “A chemical toolbox for the study of bromodomains and epigenetic signaling” (Nature Communications, 2019).
Read-outs that look alike come from different tables or passages of the source.

How the values were obtained:
Format in all cases: biochemical
[1] = biological target: GCN5L2 (Homo sapiens, UniProt Q92830); assay: Histone acetyltransferase (HAT) activity assay; details: for activity at 1 µM / activity at 10 µM: read-out: HATs Activity (%);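 on all read-outs here: selectivity screen of BRD probe compounds across a panel of histone acetyltransferases, HAT activity in % with compound at 1 or 10 µM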
[2] = biological target: T1, HAT1 (Homo sapiens, UniProt O14929); assay: Histone acetyltransferase (HAT) activity assay; details: for activity at 1 µM / activity at 10 µM: read-out: HATs Activity (%);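 on all read-outs here: HAT selectivity screen of BRD probe compounds, enzyme activity in % measured with compound at 1 µM and 10 µM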
T1 sequence (O14929 1-419): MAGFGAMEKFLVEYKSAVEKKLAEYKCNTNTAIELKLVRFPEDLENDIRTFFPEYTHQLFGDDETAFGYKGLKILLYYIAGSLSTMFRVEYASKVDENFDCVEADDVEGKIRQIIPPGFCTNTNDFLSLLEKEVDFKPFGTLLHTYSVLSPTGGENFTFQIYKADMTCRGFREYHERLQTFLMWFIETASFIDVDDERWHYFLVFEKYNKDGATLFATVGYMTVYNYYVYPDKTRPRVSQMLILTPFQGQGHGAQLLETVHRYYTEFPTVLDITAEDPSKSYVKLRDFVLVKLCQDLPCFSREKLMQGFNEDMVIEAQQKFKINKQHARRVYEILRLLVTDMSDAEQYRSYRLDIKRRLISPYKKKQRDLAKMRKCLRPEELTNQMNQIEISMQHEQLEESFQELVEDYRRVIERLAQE

[3] = biological target: MYST3 (Homo sapiens, UniProt Q92794); assay: Histone acetyltransferase (HAT) activity assay; details: for activity at 1 µM / activity at 10 µM: read-out: HATs Activity (%);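 on all read-outs here: selectivity screen of bromodomain probe compounds across a panel of histone acetyltransferases, read out as enzyme activity in %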
[4] = biological target: T2, MYST1 (Homo sapiens, UniProt Q9H7Z6); assay: Histone acetyltransferase (HAT) activity assay; details: for activity at 1 µM / activity at 10 µM: read-out: HATs Activity (%);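 on all read-outs here: selectivity screen across a panel of histone acetyltransferases, with compounds tested at 1 and 10 µM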
T2 sequence (Q9H7Z6 1-458): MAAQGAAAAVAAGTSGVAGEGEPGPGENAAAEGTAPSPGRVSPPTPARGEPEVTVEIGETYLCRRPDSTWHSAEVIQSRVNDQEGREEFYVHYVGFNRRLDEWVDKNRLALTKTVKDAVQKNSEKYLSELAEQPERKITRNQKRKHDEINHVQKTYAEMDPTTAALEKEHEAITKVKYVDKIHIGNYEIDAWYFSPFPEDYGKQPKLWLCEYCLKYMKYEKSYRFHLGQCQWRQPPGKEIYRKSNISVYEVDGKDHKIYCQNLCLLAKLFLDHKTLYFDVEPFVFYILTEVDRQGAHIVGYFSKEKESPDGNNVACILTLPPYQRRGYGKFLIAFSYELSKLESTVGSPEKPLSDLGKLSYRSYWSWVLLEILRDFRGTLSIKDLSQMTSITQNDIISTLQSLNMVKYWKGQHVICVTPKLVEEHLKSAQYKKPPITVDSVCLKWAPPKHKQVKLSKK

[5] = biological target: EP300 (Homo sapiens, UniProt Q09472); assay: Histone acetyltransferase (HAT) activity assay; details: for activity at 1 µM / activity at 10 µM: read-out: HATs Activity (%);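 on all read-outs here: selectivity screen of bromodomain probe compounds against histone acetyltransferases, with enzyme activity given in percent for compounds tested at 1 and 10 µM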
[6] = biological target: T3, SETDB1 (Homo sapiens, UniProt Q15047); assay: Methyl transferase scintillation proximity assay; details: average of two measurements, read-out: MTases Inhibition (%)
T3 construct: purchased DiscoverX BROMOscan (bromodomains); SGC in-house methyltransferase panel
Method: (§1) Assays measuring lysine and arginine methyl transferase activity have been described in Scheer et al.. A radioactivity-based scintillation proximity assay was used to monitor incorporation of a tritium-labeled methyl group into the biotinylated substrate of the methyl transferase. A 10-μl reaction containing ^3H-SAM and substrate at concentrations close to the apparent Km values for each enzyme was prepared. The reactions were quenched with 10 μl of 7.5 M guanidine hydrochloride; 180 μl of 20 mM Tris buffer (pH 8.0) were added; and the mixture was transferred to a 96-well FlashPlate and incubated for 1 h. The counts per minute (CPM) was measured on a TopCount plate reader. The CPM in the absence of compound or enzyme was defined as 100% activity and background (0%), respectively, for each dataset.

[7] = biological target: T4, PRC2-EZH2 (Homo sapiens, UniProt Q15910); assay: Methyl transferase scintillation proximity assay; details: average of two measurements, read-out: MTases Inhibition (%)
T4 construct: purchased DiscoverX BROMOscan (bromodomains); SGC in-house methyltransferase panel
Method: as §1

[8] = biological target: T5, PRMT6 (Homo sapiens, UniProt Q96LA8); assay: Methyl transferase scintillation proximity assay; details: average of two measurements, read-out: MTases Inhibition (%)
T5 construct: purchased DiscoverX BROMOscan (bromodomains); SGC in-house methyltransferase panel
Method: as §1

[9] = biological target: T6, PRC2-EZH1 (Homo sapiens, UniProt Q92800); assay: Methyl transferase scintillation proximity assay; details: average of two measurements, read-out: MTases Inhibition (%)
T6 construct: purchased DiscoverX BROMOscan (bromodomains); SGC in-house methyltransferase panel
Method: as §1

[10] = biological target: T7, MLL1 (Trimeric) (Homo sapiens, UniProt Q03164); assay: Methyl transferase scintillation proximity assay; details: average of two measurements, read-out: MTases Inhibition (%)
T7 construct: purchased DiscoverX BROMOscan (bromodomains); SGC in-house methyltransferase panel
Method: as §1

[11] = biological target: T8, SUV420H1 (Homo sapiens, UniProt Q4FZB7); assay: Methyl transferase scintillation proximity assay; details: average of two measurements, read-out: MTases Inhibition (%)
T8 construct: purchased DiscoverX BROMOscan (bromodomains); SGC in-house methyltransferase panel
Method: as §1

[12] = biological target: T9, PRMT7 (Homo sapiens, UniProt Q9NVM4); assay: Methyl transferase scintillation proximity assay; details: average of two measurements, read-out: MTases Inhibition (%)
T9 construct: purchased DiscoverX BROMOscan (bromodomains); SGC in-house methyltransferase panel
T9 sequence (Q9NVM4 1-692): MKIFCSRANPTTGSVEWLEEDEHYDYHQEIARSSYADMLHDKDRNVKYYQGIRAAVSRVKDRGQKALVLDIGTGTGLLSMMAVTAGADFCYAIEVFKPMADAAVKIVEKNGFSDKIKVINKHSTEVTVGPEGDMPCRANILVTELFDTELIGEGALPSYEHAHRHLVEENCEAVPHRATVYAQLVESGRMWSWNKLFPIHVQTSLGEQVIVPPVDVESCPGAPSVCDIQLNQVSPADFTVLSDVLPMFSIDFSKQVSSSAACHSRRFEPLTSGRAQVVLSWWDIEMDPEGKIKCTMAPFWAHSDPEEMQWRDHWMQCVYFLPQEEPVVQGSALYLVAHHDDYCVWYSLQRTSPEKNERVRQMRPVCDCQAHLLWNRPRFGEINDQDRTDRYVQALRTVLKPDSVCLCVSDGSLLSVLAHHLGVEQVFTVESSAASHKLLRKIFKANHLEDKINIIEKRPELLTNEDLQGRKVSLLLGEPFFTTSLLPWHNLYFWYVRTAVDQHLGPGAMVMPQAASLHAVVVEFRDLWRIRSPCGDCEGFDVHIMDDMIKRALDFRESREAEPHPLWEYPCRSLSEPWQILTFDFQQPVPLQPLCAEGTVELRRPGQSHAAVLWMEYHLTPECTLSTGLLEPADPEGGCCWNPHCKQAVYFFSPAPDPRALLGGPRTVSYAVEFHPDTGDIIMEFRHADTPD
Method: as §1

[13] = biological target: T10, DNMT3B/3L (Homo sapiens, UniProt Q9UBC3); assay: Methyl transferase scintillation proximity assay; details: average of two measurements, read-out: MTases Inhibition (%)
T10 construct: purchased DiscoverX BROMOscan (bromodomains); SGC in-house methyltransferase panel
Method: as §1

[14] = biological target: T11, PRMT1 (Homo sapiens, UniProt Q99873); assay: Methyl transferase scintillation proximity assay; details: average of two measurements, read-out: MTases Inhibition (%)
T11 construct: purchased DiscoverX BROMOscan (bromodomains); SGC in-house methyltransferase panel
Method: as §1

[15] = biological target: T12, SUV39H2 (Homo sapiens, UniProt Q9H5I1); assay: Methyl transferase scintillation proximity assay; details: average of two measurements, read-out: MTases Inhibition (%)
T12 construct: purchased DiscoverX BROMOscan (bromodomains); SGC in-house methyltransferase panel
Method: as §1

T4 sequence (Q15910 whole entry): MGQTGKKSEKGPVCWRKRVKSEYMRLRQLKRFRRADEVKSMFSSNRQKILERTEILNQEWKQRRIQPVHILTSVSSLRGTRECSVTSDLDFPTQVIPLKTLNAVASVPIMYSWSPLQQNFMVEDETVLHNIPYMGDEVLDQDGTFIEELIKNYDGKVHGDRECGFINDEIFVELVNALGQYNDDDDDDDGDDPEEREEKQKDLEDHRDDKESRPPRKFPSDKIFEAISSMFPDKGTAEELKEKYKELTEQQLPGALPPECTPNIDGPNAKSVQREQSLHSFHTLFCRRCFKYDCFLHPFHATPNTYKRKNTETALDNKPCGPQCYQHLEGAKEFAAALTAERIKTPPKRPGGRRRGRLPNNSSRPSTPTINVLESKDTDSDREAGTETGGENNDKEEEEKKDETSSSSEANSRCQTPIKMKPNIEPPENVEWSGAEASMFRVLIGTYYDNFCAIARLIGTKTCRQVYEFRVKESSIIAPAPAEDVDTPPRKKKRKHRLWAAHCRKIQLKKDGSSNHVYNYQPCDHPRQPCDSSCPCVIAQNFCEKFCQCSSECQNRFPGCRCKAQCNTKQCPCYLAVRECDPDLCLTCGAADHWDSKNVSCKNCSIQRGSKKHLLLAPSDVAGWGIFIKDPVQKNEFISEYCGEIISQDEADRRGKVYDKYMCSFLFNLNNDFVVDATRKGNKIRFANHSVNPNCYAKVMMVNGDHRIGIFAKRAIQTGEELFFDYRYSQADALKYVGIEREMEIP
T4 sequence (O75530 whole entry partner): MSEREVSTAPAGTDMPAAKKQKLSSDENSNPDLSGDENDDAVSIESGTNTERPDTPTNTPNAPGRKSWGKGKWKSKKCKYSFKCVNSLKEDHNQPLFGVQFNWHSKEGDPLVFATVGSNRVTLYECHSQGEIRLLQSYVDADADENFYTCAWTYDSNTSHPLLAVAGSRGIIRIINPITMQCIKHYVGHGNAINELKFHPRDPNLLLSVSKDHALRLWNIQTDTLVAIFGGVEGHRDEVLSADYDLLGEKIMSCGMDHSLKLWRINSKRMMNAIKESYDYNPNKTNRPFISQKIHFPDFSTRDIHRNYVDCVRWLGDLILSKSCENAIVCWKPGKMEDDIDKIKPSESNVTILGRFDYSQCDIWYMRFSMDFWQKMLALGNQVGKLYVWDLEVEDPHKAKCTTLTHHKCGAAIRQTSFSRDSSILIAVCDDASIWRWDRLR
T4 sequence (Q15022 whole entry partner): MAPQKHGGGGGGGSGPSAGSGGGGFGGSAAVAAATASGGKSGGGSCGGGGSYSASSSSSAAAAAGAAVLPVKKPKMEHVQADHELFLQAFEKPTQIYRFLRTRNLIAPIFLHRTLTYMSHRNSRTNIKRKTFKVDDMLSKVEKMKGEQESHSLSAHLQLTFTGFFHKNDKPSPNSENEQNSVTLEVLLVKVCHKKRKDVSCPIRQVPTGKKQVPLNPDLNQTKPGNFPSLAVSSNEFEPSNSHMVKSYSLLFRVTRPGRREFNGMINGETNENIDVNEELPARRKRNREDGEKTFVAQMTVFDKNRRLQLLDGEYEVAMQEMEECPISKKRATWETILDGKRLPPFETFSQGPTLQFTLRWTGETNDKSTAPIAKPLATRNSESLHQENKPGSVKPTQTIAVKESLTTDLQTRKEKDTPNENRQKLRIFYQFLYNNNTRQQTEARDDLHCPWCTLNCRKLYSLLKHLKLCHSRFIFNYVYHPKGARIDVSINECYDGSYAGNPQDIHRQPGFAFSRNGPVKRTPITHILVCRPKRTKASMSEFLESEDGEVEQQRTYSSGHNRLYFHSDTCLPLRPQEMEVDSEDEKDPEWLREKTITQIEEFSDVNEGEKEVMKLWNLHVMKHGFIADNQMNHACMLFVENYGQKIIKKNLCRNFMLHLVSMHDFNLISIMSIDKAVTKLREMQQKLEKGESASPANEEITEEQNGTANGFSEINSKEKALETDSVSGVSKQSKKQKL
T5 sequence (Q96LA8 whole entry): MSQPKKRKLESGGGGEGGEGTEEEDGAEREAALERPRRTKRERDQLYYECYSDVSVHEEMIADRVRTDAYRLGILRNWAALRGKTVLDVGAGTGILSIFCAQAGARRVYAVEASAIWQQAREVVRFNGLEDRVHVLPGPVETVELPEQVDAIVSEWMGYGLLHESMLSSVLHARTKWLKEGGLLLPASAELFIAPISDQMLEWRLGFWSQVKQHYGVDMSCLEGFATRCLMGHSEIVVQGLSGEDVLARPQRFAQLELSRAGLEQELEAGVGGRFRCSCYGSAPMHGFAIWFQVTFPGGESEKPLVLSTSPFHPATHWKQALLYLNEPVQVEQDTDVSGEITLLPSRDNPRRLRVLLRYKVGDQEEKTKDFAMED
Chain of EP300 (Q09472 whole entry, species assumed): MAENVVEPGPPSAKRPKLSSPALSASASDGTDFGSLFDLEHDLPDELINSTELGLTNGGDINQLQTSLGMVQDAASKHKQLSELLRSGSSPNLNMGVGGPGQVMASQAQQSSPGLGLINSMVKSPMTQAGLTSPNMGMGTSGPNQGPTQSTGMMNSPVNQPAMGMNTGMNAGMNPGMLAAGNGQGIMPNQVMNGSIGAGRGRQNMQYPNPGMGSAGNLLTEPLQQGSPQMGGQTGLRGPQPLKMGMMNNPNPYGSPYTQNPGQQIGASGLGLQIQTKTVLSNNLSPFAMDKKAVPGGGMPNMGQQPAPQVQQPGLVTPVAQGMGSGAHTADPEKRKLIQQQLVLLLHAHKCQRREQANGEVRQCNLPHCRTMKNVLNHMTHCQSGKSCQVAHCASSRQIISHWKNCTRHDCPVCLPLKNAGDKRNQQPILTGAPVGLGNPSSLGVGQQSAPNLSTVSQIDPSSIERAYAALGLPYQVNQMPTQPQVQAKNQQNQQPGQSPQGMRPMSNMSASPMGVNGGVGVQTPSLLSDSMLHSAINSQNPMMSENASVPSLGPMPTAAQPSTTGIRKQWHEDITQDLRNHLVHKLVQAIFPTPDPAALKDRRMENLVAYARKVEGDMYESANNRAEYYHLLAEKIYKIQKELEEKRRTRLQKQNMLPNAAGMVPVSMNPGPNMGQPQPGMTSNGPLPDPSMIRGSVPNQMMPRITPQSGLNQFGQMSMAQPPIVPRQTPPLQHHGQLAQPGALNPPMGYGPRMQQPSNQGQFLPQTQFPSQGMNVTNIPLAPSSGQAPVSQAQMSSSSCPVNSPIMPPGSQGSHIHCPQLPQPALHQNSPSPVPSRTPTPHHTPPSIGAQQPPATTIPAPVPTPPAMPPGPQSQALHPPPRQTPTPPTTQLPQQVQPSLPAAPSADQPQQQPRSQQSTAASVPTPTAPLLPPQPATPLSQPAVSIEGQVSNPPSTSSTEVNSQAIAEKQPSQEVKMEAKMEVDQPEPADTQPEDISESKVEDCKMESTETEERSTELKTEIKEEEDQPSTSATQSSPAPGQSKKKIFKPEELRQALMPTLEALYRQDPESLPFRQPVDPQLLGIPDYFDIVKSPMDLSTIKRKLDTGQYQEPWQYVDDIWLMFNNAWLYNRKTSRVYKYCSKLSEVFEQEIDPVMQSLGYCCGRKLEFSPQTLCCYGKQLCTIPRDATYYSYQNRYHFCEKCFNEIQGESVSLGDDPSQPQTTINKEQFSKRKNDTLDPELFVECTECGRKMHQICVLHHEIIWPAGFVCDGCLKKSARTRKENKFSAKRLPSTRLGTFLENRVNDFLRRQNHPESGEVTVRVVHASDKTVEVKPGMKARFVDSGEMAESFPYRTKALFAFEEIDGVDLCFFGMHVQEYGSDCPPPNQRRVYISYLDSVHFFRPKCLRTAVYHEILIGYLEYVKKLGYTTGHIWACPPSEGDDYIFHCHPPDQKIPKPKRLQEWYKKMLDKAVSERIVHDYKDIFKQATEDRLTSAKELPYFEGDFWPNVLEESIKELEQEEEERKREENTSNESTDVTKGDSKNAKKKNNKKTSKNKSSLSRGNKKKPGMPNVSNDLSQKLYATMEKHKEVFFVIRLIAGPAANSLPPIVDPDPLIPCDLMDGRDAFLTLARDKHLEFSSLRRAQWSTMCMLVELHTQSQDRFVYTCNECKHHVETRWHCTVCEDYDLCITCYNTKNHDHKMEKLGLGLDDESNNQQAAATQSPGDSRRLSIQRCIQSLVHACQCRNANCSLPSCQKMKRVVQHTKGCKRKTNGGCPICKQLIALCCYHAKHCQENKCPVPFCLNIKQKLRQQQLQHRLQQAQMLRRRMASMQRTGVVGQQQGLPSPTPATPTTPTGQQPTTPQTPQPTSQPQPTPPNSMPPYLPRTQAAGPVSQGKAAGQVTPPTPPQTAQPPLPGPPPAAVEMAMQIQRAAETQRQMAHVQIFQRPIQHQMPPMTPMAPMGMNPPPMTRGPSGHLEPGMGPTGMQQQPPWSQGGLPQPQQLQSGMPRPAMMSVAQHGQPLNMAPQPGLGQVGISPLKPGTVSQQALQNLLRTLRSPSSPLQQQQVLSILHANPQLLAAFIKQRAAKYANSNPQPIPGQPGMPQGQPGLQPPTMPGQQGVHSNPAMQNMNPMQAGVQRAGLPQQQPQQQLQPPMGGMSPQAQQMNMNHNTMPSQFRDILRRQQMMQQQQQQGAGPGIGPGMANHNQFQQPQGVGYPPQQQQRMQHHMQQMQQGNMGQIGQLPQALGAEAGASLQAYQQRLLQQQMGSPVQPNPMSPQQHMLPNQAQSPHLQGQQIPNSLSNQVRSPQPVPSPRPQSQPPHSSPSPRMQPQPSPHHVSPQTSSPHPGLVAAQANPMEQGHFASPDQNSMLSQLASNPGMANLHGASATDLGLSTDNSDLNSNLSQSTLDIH
T11 sequence (Q99873 whole entry): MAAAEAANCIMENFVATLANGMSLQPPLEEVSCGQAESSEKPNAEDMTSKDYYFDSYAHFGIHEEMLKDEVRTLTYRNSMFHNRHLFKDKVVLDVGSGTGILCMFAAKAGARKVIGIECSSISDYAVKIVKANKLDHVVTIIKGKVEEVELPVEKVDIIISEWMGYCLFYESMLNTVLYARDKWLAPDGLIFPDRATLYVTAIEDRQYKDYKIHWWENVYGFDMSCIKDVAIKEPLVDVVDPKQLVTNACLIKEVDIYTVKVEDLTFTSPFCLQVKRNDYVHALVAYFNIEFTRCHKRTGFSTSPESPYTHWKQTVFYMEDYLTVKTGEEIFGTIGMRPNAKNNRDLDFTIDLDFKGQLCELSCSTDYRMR

activity at 1 µM ([1]; 1µM) [%] | activity at 10 µM ([1]; 10µM) [%] | activity at 1 µM ([2]; 1µM) [%] | activity at 10 µM ([2]; 10µM) [%] | activity at 1 µM ([3]; 1µM) [%] | activity at 10 µM ([3]; 10µM) [%] | activity at 1 µM ([4]; 1µM) [%] | activity at 10 µM ([4]; 10µM) [%] | activity at 1 µM ([5]; 1µM) [%] | activity at 10 µM ([5]; 10µM) [%] | inhibition at 10 µM [6] [%] | inhibition at 10 µM [7] [%] | inhibition at 10 µM [8] [%] | inhibition at 10 µM [9] [%] | inhibition at 10 µM [10] [%] | inhibition at 10 µM [11] [%] | inhibition at 10 µM [12] [%] | inhibition at 10 µM [13] [%] | inhibition at 10 µM [14] [%] | inhibition at 10 µM [15] [%] | SMILES | other results
99 | 103 | 100 | 93 | 98 | 85 | 99 | 99 | 95 | 93 | – | – | – | – | – | – | – | – | – | – | Cc1cc2c(cc1N1C(=O)c3cccc4c(CCCO)ccc(c34)C1=O)n(C)c(=O)n2C [BAY-299] | –
– | – | – | – | – | – | – | – | – | – | – | – | – | – | – | – | – | – | – | – | Cc1cc(=O)n(C)c2cc(N3C(=O)CC[C@H](NS(=O)(=O)CC(C)C)[C@H]3c3ccc(Cl)cc3)ccc12 [LP-99] | HATs Activity (%) ([1]; 1µM): 92%; HATs Activity (%) ([1]; 10µM): 89%; HATs Activity (%) ([2]; 1µM): 104%; HATs Activity (%) ([2]; 10µM): 95%; HATs Activity (%) ([3]; 1µM): 96%; HATs Activity (%) ([3]; 10µM): 100%; HATs Activity (%) ([4]; 1µM): 90%; HATs Activity (%) ([4]; 10µM): 88%; HATs Activity (%) ([5]; 1µM): 99%; HATs Activity (%) ([5]; 10µM): 98%
100 | 97 | 97 | 89 | 99 | 101 | 96 | 91 | 99 | 95 | -4 | 5 | -3 | -4 | 11 | -1 | 12 | 1 | 2 | -2 | Cc1c(NC(=O)c2cc(C(N)=O)nc3cc(F)ccc23)c(C(F)(F)F)nn1Cc1ccc(C#N)cc1 [BAY-876] | –
96 | 92 | 93 | 100 | 97 | 99 | 99 | 97 | 99 | 95 | -1 | 3 | 6 | 6 | 17 | 3 | 9 | 0 | 0 | 7 | CN(C)CCCOc1ccc(-c2cc(NCCCn3cccn3)nc(S(C)(=O)=O)n2)cc1 [TP-238] | –
101 | 101 | 96 | 97 | 103 | 103 | 103 | 97 | 98 | 92 | – | – | – | – | – | – | – | – | – | – | COc1ccc(CCc2nc3cc(-c4c(C)noc4C)ccc3n2C[C@H](C)N2CCOCC2)cc1Cl [SGC-CBP30] | –
102 | 100 | 100 | 95 | 96 | 102 | 99 | 103 | 96 | 102 | 1 | 2 | 0 | 1 | 6 | -3 | 11 | 18 | 3 | 3 | CO[C@H]1CNC[C@@H](OCC2CCC(F)(F)CC2)[C@@H]1Nc1ncc(-c2cncc(C)c2)c2cc(C)c(=O)[nH]c12 [GSK8814] | –
– | – | – | – | – | – | – | – | – | – | – | – | – | – | – | – | – | – | – | – | COc1cc2c(cc1NS(=O)(=O)c1ccc(Br)cc1C)n(C)c(=O)n2C [OF-1] | HATs Activity (%) ([1]; 1µM): 98%; HATs Activity (%) ([1]; 10µM): 93%; HATs Activity (%) ([2]; 1µM): 92%; HATs Activity (%) ([2]; 10µM): 93%; HATs Activity (%) ([3]; 1µM): 100%; HATs Activity (%) ([3]; 10µM): 102%; HATs Activity (%) ([4]; 1µM): 102%; HATs Activity (%) ([4]; 10µM): 94%; HATs Activity (%) ([5]; 1µM): 100%; HATs Activity (%) ([5]; 10µM): 103%
99 | 102 | 101 | 101 | 96 | 97 | 93 | 94 | 98 | 87 | 8 | 3 | 13 | 19 | -1 | 5 | 3 | 28 | 15 | -2 | COc1cc(Cl)c(C(=O)N[C@@H](CN[C@H]2CC[C@@H](N)CC2)Cc2ccc(C#N)cc2)cc1-c1ccc(CN[C@H](C)c2ccc(C)cc2)o1 [BAY-850] | –
– | – | – | – | – | – | – | – | – | – | – | – | – | – | – | – | – | – | – | – | CCCS(=O)(=O)c1nc(NC2CC2)cc(-c2ccc3c(ccn3C3CC(C)(C)NC(C)(C)C3)c2)n1 [NVS-CECR2-1] | activity at 1 µM [1]: 100%; activity at 10 µM [1]: 100%; activity at 1 µM [2]: 99%; activity at 10 µM [2]: 88%; activity at 1 µM [3]: 98%; activity at 10 µM [3]: 103%; activity at 1 µM [4]: 96%; activity at 10 µM [4]: 94%; activity at 1 µM [5]: 90%; activity at 10 µM [5]: 84%
105 | 102 | 100 | 94 | 98 | 99 | 98 | 103 | 97 | 99 | – | – | – | – | – | – | – | – | – | – | CCC(=O)N1CCOc2c(cc(-c3ccc(OC)c(OC)c3)cc2OCC2CCCN(C)C2)C1 (stereo not drawn) [I-CBP112] | –
99 | 101 | 96 | 94 | 95 | 96 | 99 | 99 | 98 | 97 | – | – | – | – | – | – | – | – | – | – | O=C(C=CN1CC2CC1CN2c1ccccn1)c1ccccc1O (stereo not drawn) [PFI-3] | –
